Consider five compounds from US10526369B2, “Oxidative modification improves the drugability of cell penetrating peptides as drug carriers” (JOWIN BIOPHARMA, priority 2016, dated 2020).

Series [1] can be described thus: Stability of peptides in mice serum (HPLC of remaining peptide, t1/2 by CompuSyn). In kind it is in vitro ADME. The settings on record: for Fold increase (of t1/2 compared with CPPecp): t1/2 of CPPecp set as one-fold; for half-life: mouse. On the procedure: FIG. 1 illustrates the stability of CPPecp in mice serum. CPPecp was dissolved in 1× PBS (4 mg/ml) and incubated with equal volume of mice serum (final 50%) for different time points (0, 2, 5, 15, 30, 60 min, respectively). The reaction was terminated by the addition of an equal volume of TCA solution (final 50%) and denatured serum proteins were removed by centrifugation. The supernatant was then assayed by HPLC to quantify the remaining CPPecp. Zero time point was set as 100 percent of remaining CPPecp and relative amounts of CPPecp in each time point were calculated. Data represent the mean±SD (standard deviation) of three independent experiments. The t1/2 of CPPecp was calculated by CompuSyn.
FIG. 2 illustrates comparison of stabilities between CPPecp and N-terminal FITC-conjugated CPPecp in mice serum. Both were dissolved in dH2O (0.5 mg/ml) and incubated with equal volume of 20% mice serum (final 10%) for different time points (0, 2, 5, 15, 30, 60 min, respectively). The reactions were terminated by the addition of an equal volume of TCA solution (final 50%) and denatured serum proteins were removed by centrifugation. The supernatants were assayed by HPLC to quantify the remaining peptides. Zero time point was set as 100 percent of remaining peptides and relative amounts of peptides in each time point were calculated. The t1/2, of CPPecp and N-terminal FITC-CPPecp were calculated by CompuSyn.
FIG. 3 illustrates stabilities of N-terminal (5-FAM)-CPPecp-CPPecp (A) and N-terminal Ac-CPPecp (B) in mice serum. Both modified peptides were dissolved in dH2O (0.5 mg/ml) and incubated with equal volume of 20% mice serum (final 10%) for different time points (0-24 hours for (5-FAM)-CPPecp-CPPecp and 0-60 min for Ac-CPPecp, respectively). The reactions were terminated by the addition of an equal volume of TCA solution (final 50%) and denatured serum proteins were removed by centrifugation. The supernatants were assayed by HPLC to quantify the remaining peptides. Zero time point was set as 100 percent of remaining peptides and relative amounts of peptides in each time point were calculated. The t1/2 of N-terminal (5-FAM)-CPPecp-CPPecp and N-terminal Ac-CPPecp were calculated by CompuSyn.
FIG. 5 illustrates comparison of stabilities between CPPecp (A) and CPPecp-dimer (B) in mice serum. Both peptides were dissolved in 1× PBS (4 mg/ml) and incubated with equal volume of mice serum (final 50%) for different time points (0-60 min for CPPecp and 0-48 hours for CPPecp-dimer, respectively). The reactions were terminated by the addition of an equal volume of TCA solution (final 50%) and denatured serum proteins were removed by centrifugation. The supernatants were assayed by HPLC to quantify the remaining peptides. Zero time point was set as 100 percent of remaining peptides and relative amounts of peptides in each time point were calculated. Data represent the mean±SD (standard deviation) of three independent experiments. The t1/2, of CPPecp and CPPecp-dimer were calculated by CompuSyn.
The unmodified CPPecp (NH2-NYRWRCKNQN-COOH (SEQ. ID NO:2)) was synthesized by MISSION BIOTECH Inc. in TAIWAN. To determine the stability of unmodified CPPecp in mice serum, 100 μl of CPPecp (0.5 mg/ml or 4 mg/ml) was mixed with equal volume of whole mice serum (strain: CD-1 (ICR), final 50%) and incubated at room temperature for 0, 2, 5, 15, 30 and 60 min. The reaction was stopped by adding 200 μl of 100% TCA solution and vortexed for 5 seconds to precipitate serum proteins. Denatured serum proteins were removed by centrifugation at 18000 x g, 4° C. for 2 mins. The supernatants were analyzed by HPLC (column: Purospher® STAR RP-18e, eluent A: 0.1% TFA in dH2O, eluent B: 0.1% TFA in acetonitrile, flow rate: 1ml/min, gradient: 2-35% of eluent B in 15 min, UV wavelength: 280 nm). Zero-time point was set as one hundred percent of remaining CPPecp and relative amount of CPPecp in each time point were calculated. The t1/2 of CPPecp was calculated by CompuSyn (ver. 1.0). […]

The next series concerns NCI-H460 cells. Nature of the series: Heparan sulfate binding assay on cells (fluorescence spectrophotometer). Particulars: NCI-H460 cells pre-incubated with heparanase 5 U/ml, 37° C., 2 hours. In kind it is cell-based. The procedure:
FIG. 7 illustrates binding specificity of CPPecp and CPPecp-dimer on NCI-H460 cells. Before treatment, each well (96-well plate) was blocked by 2% of BSA at 4° C. for 1 hour, and washed with PBS once. After blocking, NCI-H460 cells were incubated with 0.625, 1.25 and 2.5 μM of FITC-CPPecp and FITC-CPPecp dimer at 4° C. for 1 hour. After washing with PBS, the binding of FITC-CPPecp and FITC-CPPecp dimer were measured by fluorescence spectrophotometer (A). To test binding specificity, cells were incubated with heparanase (5 U/ml) at 37° C. for 2 hours before peptide incubation (B and C). Total peptide inputs (binding and washout) were set as 100 percent and the relative binding of FITC-CPPecp and FITC-CPPecp dimer were calculated. The data represented the means of triplicate incubations. […]
In order to certify if the specific binding affinity to heparan sulfate of disulfide linked CPPecp-dimer is still maintained as original CPPecp, the heparan sulfate binding affinity was investigated by FITC-conjugated CPPecp monomer and dimer, and measured by fluorescence spectrophotometer. […] After rinse, each well was refilled with 100 μl of 1× PBS and the fluorescence intensity was measured by fluorescence spectrophotometer (excitation: 485 nm; emission: 521 nm) as binding partition. Unbound and rinsed out peptides were obtained by adding up the fluorescence intensity of culture medium and buffer. […]

Series [2] deals with lung cancer cell lines: A549, NCI-H460 and NCI-H441. The series can be described thus: Toxicity in lung cancer cell lines (cell viability, MTS assay). In kind it is cell-based. The settings on record: 0.3-30 μM, 72 hours. The procedure: FIG. 8 illustrates toxicities of CPPecp and CPPecp-dimer in different lung cancer cell lines. Cells were incubated with CPPecp and CPPecp-dimer in different concentrations (0, 0.3, 1, 3, 10 and 30 μM) at 37° C. for 72 hours. Cell viabilities were measured by MTS assay. The 0 μM of CPPecp (vehicle control) was set as 100 percent and the relative viabilities in each concentration were calculated.
In order to investigate the application potential of CPPecp-dimer as a drug carrier, the toxicity of CPPecp-dimer was tested and CPPecp monomer was compared in three lung cancer cell lines: A549, NCI-H460 and NCI-H441. Lung cancer cell lines were seeded in 96-well plates (2*10^3/well) and incubated overnight. After adhesion, cells were incubated with different concentrations of CPPecp and CPPecp dimer (0, 0.3, 1, 3, 10 and 30 μM) for 72 hours. Cell viabilities were determined by MST assay (Promega Corp.). The cells without treatment were set as control and 100 percent and the relative viabilities in each concentration were calculated.
For orientation: Tetrazolium dyes change colour on reduction, which living cells bring about.

Setting [3] is: mice serum, final 10%, peptide 0.5 mg/ml in dH2O.
[4] abbreviates: mice serum (CD-1 (ICR)), final 50%, room temperature.

Where a SMILES comes first, the peptide text is derived from it. Bridges are numbered along the chain shown (N, C = ends). Roman numbers before positions name the chains, in order. Where no end group is shown, it is not given here. The star is where a group is joined. FITC = O=C1OC2(c3ccc(O)cc3Oc3cc(O)ccc32)c2ccc(NC(=S)*)cc21; 5FAM = O=C1OC2(c3ccc(O)cc3Oc3cc(O)ccc32)c2ccc(C(=O)*)cc21

For `N=C(N)NCCC[C@H](NC(=O)[C@H](Cc1ccc(O)cc1)NC(=O)[C@H](CC(N)=O)NC(=O)c1ccc2c(c1)C(=O)OC21c2ccc(O)cc2Oc2cc(O)ccc21)C(=O)N[C@@H](Cc1c[nH]c2ccccc12)C(=O)N[C@@H](CCCNC(=N)N)C(=O)N[C@@H](CS)C(=O)N[C@@H](CCCCN)C(=O)N[C@@H](CC(N)=O)C(=O)N[C@@H](CCC(N)=O)C(=O)N[C@@H](CC(N)=O)C(=O)N[C@@H](CC(N)=O)C(=O)N[C@@H](Cc1ccc(O)cc1)C(=O)N[C@@H](CCCNC(=N)N)C(=O)N[C@@H](Cc1c[nH]c2ccccc12)C(=O)N[C@@H](CCCNC(=N)N)C(=O)N[C@@H](CS)C(=O)N[C@@H](CCCCN)C(=O)N[C@@H](CC(N)=O)C(=O)N[C@@H](CCC(N)=O)C(=O)N[C@@H](CC(N)=O)C(=O)O` [(5-FAM)-CPPecp-CPPecp] (5FAM-NYRWRCKNQNNYRWRCKNQN-OH; N-terminus and C-terminus assumed), the “stability compared with unmodified CPPecp (in words)” value in series [1] (mice serum, final 10%) is listed as “prolonged its stability from 2 to 24 hours”. Also, the “Fold increase (of t1/2 compared with CPPecp)” value (shortened to “Fold increase”) in series [1] (mice serum) is “+720%”. The same compound gave a half-life in series [1] (setting [3]) of 19.2 min.

In the case of `N=C(N)NCCC[C@H](NC(=O)[C@H](Cc1c[nH]c2ccccc12)NC(=O)[C@H](CCCNC(=N)N)NC(=O)[C@H](Cc1ccc(O)cc1)NC(=O)[C@H](CC(N)=O)NC(=S)Nc1ccc2c(c1)C(=O)OC21c2ccc(O)cc2Oc2cc(O)ccc21)C(=O)N[C@@H](CS)C(=O)N[C@@H](CCCCN)C(=O)N[C@@H](CC(N)=O)C(=O)N[C@@H](CCC(N)=O)C(=O)N[C@@H](CC(N)=O)C(=O)O` [FITC-CPPecp] ({FITC}-NYRWRCKNQN-OH; C-terminus assumed), the “stability compared with unmodified CPPecp (in words)” value in series [1] (mice serum, final 10%) is “not improved”. In series [1] (mice serum), the “Fold increase” value is recorded as “+40%”. For the same compound, the half-life in series [1] (setting [3]) turned out to be 3.28 min. In the series with NCI-H460 cells, the “binding percentage after heparanase treatment” value is listed as “decreased binding percentage”.

Ac-NYRWRCKNQN [Ac-CPPecp]: the “Fold increase” value in series [1] (mice serum) is given as −24%. For the same compound, in series [1] (setting [3]), the half-life came out at 1.79 min.

Turning to `N=C(N)NCCC[C@H](NC(=O)[C@H](Cc1c[nH]c2ccccc12)NC(=O)[C@H](CCCNC(=N)N)NC(=O)[C@H](Cc1ccc(O)cc1)NC(=O)[C@@H](N)CC(N)=O)C(=O)N[C@@H](CSSC[C@H](NC(=O)[C@H](CCCNC(=N)N)NC(=O)[C@H](Cc1c[nH]c2ccccc12)NC(=O)[C@H](CCCNC(=N)N)NC(=O)[C@H](Cc1ccc(O)cc1)NC(=O)[C@@H](N)CC(N)=O)C(=O)N[C@@H](CCCCN)C(=O)N[C@@H](CC(N)=O)C(=O)N[C@@H](CCC(N)=O)C(=O)N[C@@H](CC(N)=O)C(=O)O)C(=O)N[C@@H](CCCCN)C(=O)N[C@@H](CC(N)=O)C(=O)N[C@@H](CCC(N)=O)C(=O)N[C@@H](CC(N)=O)C(=O)O` [CPPecp-dimer] (I: H-NYRWRCKNQN-OH / II: H-NYRWRCKNQN-OH; disulfide I:6-II:6), in series [1] (mice serum, final 50%), the “increase of the stability of CPPecp” value is recorded as “up to 180 fold”. Moreover, in series [1] (mice serum), the “Fold increase” value was “+17900%”. Further, in series [1] (setting [4]), the half-life is 420 min. The “effect on cell viabilities” value in series [2] was “no inhibitory effect”.

With “H-NYRWRCKNQN-OH [CPPecp, NH2-NYRWRCKNQN-COOH (SEQ. ID NO:2), reference compound]”, the “Fold increase” value in series [1] (mice serum) turned out to be 0%. Further, the half-life in series [1] (setting [4]) was found to be 2.34 min. In addition, in series [2], the “effect on cell viabilities” value was “no inhibitory effect”.

As a reminder, the half-life is how long it takes for the measured level to halve. Read a high half-life as slow loss.
